The source of these data is US4202891A, “15-Oxygenated sterol compounds and the use of such compounds to inhibit the biosynthesis of sterols” (priority 1977, dated 1980).

Test [1] has as its system sterol biosynthesis in L cells. The experiment in a line: Inhibition of sterol synthesis from [1-14C]acetate in L cell cultures. In kind it is cell-based. Conditions: Mus musculus; for inhibition at 0.1 µM: read-out: inhibition of sterol synthesis. The protocol: (§1) The effect of various 15-oxygenated sterols on sterol biosynthesis in L cells and in primary cultures of mouse liver cells was tested essentially under conditions described in detail previously [A. A. Kandutsch and H. W. Chen, J. Biol. Chem., Vol. 248, pp. 8408-8417 (1973) and A. A. Kandutsch and H. W. Chen, J. Biol. Chem., Vol. 249, pp. 6057-6061 (1974`)].
(§2) The primary liver cell cultures were prepared from 16-day-old (C57BL/6J fetuses and grown in chemically defined medium (serum-free) as described in the above cited publications. The L cells, a subline of NCTC clone 929 mouse fibroblasts, were grown in chemically defined medium (serum-free) as described in the publications. These L cells are transformed fibroblasts which are regarded as malignant since they will grow as tumors if injected into the mouse strain from which they were initially obtained.
(§3) The preparation of steroid-containing media, procedures for assays of the conversion of [1-^14 C]acetate into digitonin-precipitable sterols, fatty acids, and CO2 and methods for the measurement of DNA, protein, and HMG-CoA reductase were as described in the published articles. L cell cultures were preincubated with the 15-oxygenated sterols and their derivatives for 4 hours, then [1-^14 C]acetate was added at a concentration of 4 μmoles per ml (4 μCi per ml); or the L cell cultures were incubated for 5 hours with the 15-oxygenated sterols before they were harvested for determination of microsomal HMG-CoA reductase activity.
(§4) The test compounds were tested over a range of at least 4 concentrations and the assay was repeated until the concentration of test compound required to produce 50% inhibition was located on the steeply declining portion of an activity vs. concentration plot. To diminish any possible effects of generalized differences in cellular metabolism, the rates of sterol synthesis from [1-^14 C]acetate were calculated as the ratio of [^14 C]sterols to [^14 C]fatty acids as described in the two cited articles by Kandutsch and Chen.

For test [2], the system named is sterol biosynthesis in primary cultures of mouse liver cells. The experiment in a line: Inhibition of sterol synthesis from [1-14C]acetate in primary cultures of liver cells. The test is classed as cell-based. The protocol:
as §1, §2, §3
Conditions for incubating the 15-oxygenated sterols or their derivatives with liver cell cultures were similar to those described for L cell cultures except that the cultures were incubated with the test compounds for 12 hours before labeled acetate was added or before they were harvested for enzyme assay.
as §4

In a further test the test system is serum cholesterol. The experiment in a line: Effect on serum cholesterol levels in rats, daily subcutaneous injection (Examples 41, 42). In kind it is in vivo, rat (male, Sprague-Dawley). Conditions: Example 42; for Serum Cholesterol (Mean ± S.E.M.): 5 mg s.c. once a day in triolein. Here is the method:
Male rats of the Sprague-Dawley strain were fed Purina rat chow ad libidum. The rats were maintained on a light (7 A.M.-6 P.M.) -dark (6 P.M.-7 A.M.) cycle throughout the study and for a period of at least 4 days prior to the initiation of the study.
3β-Hexadecanoyloxy-5α-cholest-8(14)-en-15-one (5 mg; dissolved in 0.25 ml of triolein), hereafter referred to as the "palmitate ester", or 3β-hemisuccinoyloxy-5α-cholest-8(14)-en-15-one (5 mg; suspended in 0.25 ml of triolein through the use of a tight-fitting all-glass homogenizer), hereafter referred to as the "hemisuccinate ester", were administered subcutaneously once a day at about 12 P.M. to each of eight and six rats, respectively. Control animals (8) received daily injections of triolein (0.25 ml).
Blood samples were taken from the rats periodically and the serum cholesterol concentrations measured, in duplicate, by the method of Abell et al., J. Biol. Chem., Vol. 195, pp. 357-366 ([…]).
Following generally the procedure described in Example 41, 3β-Ethoxy-14α-ethyl-5α-cholest-7-en-15-one (5 mg) in triolein (0.25 ml) was administered subcutaneously once a day to each of eight rats. Control animals (8) received daily injections of triolein (0.25 ml).
Similarly, 5α-cholest-8(14)-en-3β-ol-15-one (2mg) in (0.2 ml) olive oil or 5.0 mg in 0.5 ml of olive oil) was administered subcutaneously once a day to each of a group of rats. The 2 mg dose was administered to 12 rats, while a like number of rats received daily injections of 0.2 ml olive oil. 5 mg doses were administered to each of 6 rats, while 6 control animals received daily injections of 0.5 ml olive oil. The rats used in this study initially weighed between 110 and 190 grams.

Setting [3] is: read-out: Concentrations Required for 50% Inhibition of Sterol Synthesis.
Where [4] appears, read: read-out: concentration causing 50% inhibition of sterol synthesis.

Where two headings read alike, the source gives them in different places. Bounds are passed on as bounds.

As to `CCO[C@H]1CC[C@@]2(C)[C@@H](CC=C3[C@@H]2CC[C@]2(C)[C@@H]([C@H](C)CCCC(C)C)CC(O)[C@@]32CC)C1` (stereo partly drawn) [3β-Ethoxy-14α-ethyl-5α-cholest-7-en-15-ol], the figures for the IC50 in test [1] (setting [3]) and in test [2] (setting [3]) were 700 nM and 4300 nM, respectively.
As to `CCO[C@H]1CC[C@@]2(C)[C@@H](CC=C3[C@@H]2CC[C@]2(C)[C@@H]([C@H](C)CCCC(C)C)CC(=O)[C@@]32CC)C1` [3β-ethoxy-14α-ethyl-5α-cholest-7-en-15-one], the “Serum Cholesterol (Mean ± S.E.M.)” value in the test on serum cholesterol (day 0) is 89.1 ± 2.2 mg per 100 ml; in the test on serum cholesterol (day 6) it was 77.3 ± 2.1 mg per 100 ml; in the test with serum cholesterol (day 10), 80.1 ± 2.3 mg per 100 ml; in the test with serum cholesterol (day 15), 78.5 ± 3.3 mg per 100 ml; with serum cholesterol (day 21) it was 73.1 ± 2.3 mg per 100 ml; with serum cholesterol (day 27) it was 66.8 ± 2.6 mg per 100 ml. In addition, the “% Reduction (relative to triolein-treated rats)” value with serum cholesterol (5 mg s.c. once a day, day 6) was found to be 4.8%; with serum cholesterol (5 mg s.c. once a day, day 10), 3.4%; in the test on serum cholesterol (5 mg s.c. once a day, day 15), 3.8%; with serum cholesterol (5 mg s.c. once a day, day 21), 11.5%; in the test with serum cholesterol (5 mg s.c. once a day, day 27) it was 18.3%. Also, in the test on serum cholesterol (5 mg s.c. once a day, day 27 vs. day 0), the “percentage reduction in serum cholesterol levels, mean value (S.E.M.)” value is recorded as 25.0. For the same compound, the IC50 in test [1] (setting [3]) is above 22000 nM.
As for `CCCCCCCCCCCCCCCC(=O)O[C@H]1CC[C@@]2(C)[C@@H](CC=C3[C@@H]2CC[C@]2(C)[C@@H]([C@H](C)CCCC(C)C)C[C@H](O)[C@@]32CC)C1` [3β-hexadecanoyloxy-14α-ethyl-5α-cholest-7-en-15α-ol], in test [1] (setting [3]), the IC50 stood at 7000 nM.
On the same count and under the same terms, for `CCCCCCCCCCCCCCCC(=O)O[C@H]1CC[C@@]2(C)[C@@H](CC=C3[C@@H]2CC[C@]2(C)[C@@H]([C@H](C)CCCC(C)C)C[C@@H](O)[C@@]32CC)C1` [3β-hexadecanoyloxy-14α-ethyl-5α-cholest-7-en-15β-ol] the value was above 15100 nM.
As for `CO[C@H]1CC[C@@]2(C)[C@@H](CC=C3[C@@H]2CC[C@]2(C)[C@@H]([C@H](C)CCCC(C)C)CC(=O)[C@@]32C)C1` [3β-methoxy-14α-methyl-5α-cholest-7-en-15-one], the IC50 in test [1] (setting [3]) amounted to 20000 nM.
On the same count and under the same terms, for `CC(C)CCC[C@@H](C)[C@H]1C[C@H](O)[C@@H]2C3=CC[C@H]4CC(=O)CC[C@]4(C)[C@H]3CC[C@]12C` [5α,14β-Cholest-7-en-15α-ol-3-one, 5α,14β-cholest-7-en-15α-ol-3-one] the value was 2000 nM.
For the compound `CC(C)CCC[C@@H](C)[C@H]1C[C@@H](O)[C@@H]2C3=CC[C@H]4CC(=O)CC[C@]4(C)[C@H]3CC[C@]12C` [5α,14β-Cholest-7-en-15β-ol-3-one, 5α,14β-cholest-7-en-15β-ol-3-one], the IC50 in test [1] (setting [3]) was found to be 250 nM.
For `CC(C)CCC[C@@H](C)[C@H]1CC(=O)C2=C3CC[C@H]4C[C@H](O)CC[C@]4(C)[C@H]3CC[C@@]21C` [5α-Cholest-8(14)-en-3α-ol-15-one, 5α-cholest-8(14)-en-3α-ol-15-one], the IC50 in test [1] (L cell cultures, read-out: Concentrations Required for 50% Inhibition of Sterol Synthesis) turned out to be 500 nM.
As to `CC(C)CCC[C@@H](C)[C@H]1C[C@H](O)C2=C3CC[C@H]4C[C@@H](O)CC[C@]4(C)[C@H]3CC[C@@]21C` [5α-Cholest-8(14)-en-3β,15α-diol], the IC50 in test [1] (setting [3]) was 3700 nM; in test [2] (setting [3]) it was 31000 nM.
For `CC[C@@]12C(=O)C[C@H]([C@H](C)CCCC(C)C)[C@@]1(C)CC[C@H]1C2=CC[C@H]2C[C@H](O)CC[C@@]21C` [14α-Ethyl-5α-cholest-7-en-3α-ol-15-one, 14α-ethyl-5α-cholest-7-en-3α-ol-15-one], the IC50 in test [1] (setting [3]) is below 100 nM. In addition, the inhibition – broadly, how much of the control response was suppressed – at 0.1 µM in test [1] was around 100%.
For `CC[C@]12C3=CC[C@H]4C[C@@H](O)CC[C@]4(C)[C@H]3CC[C@]1(C)[C@@H]([C@H](C)CCCC(C)C)C[C@@H]2O` [14α-Ethyl-5α-cholest-7-en-3β,15α-diol, 14α-ethyl-5α-cholest-7-en-3β,15α-diol], the IC50 in test [1] (setting [4]) was 50 nM; in test [2] (setting [3]), 60 nM; in test [2] (setting [4]) it was 60 nM.
Consider `CC[C@]12C3=CC[C@H]4C[C@@H](O)CC[C@]4(C)[C@H]3CC[C@]1(C)[C@@H]([C@H](C)CCCC(C)C)C[C@H]2O` [14α-Ethyl-5α-cholest-7-en-3β,15β-diol, 14α-ethyl-5α-cholest-7-en-3β,15β-diol], for which the IC50 in test [1] (setting [3]) stood at 400 nM; in test [2] (setting [3]) it was 800 nM.
As to `CC[C@]12C3=CC[C@H]4CC(=O)CC[C@]4(C)[C@H]3CC[C@]1(C)[C@@H]([C@H](C)CCCC(C)C)C[C@@H]2O` [14α-Ethyl-5α-cholest-7-en-15α-ol-3-one, 14α-ethyl-5α-cholest-7-en-15α-ol-3-one], in test [1] (setting [3]), the IC50 is below 100 nM. Also, in test [1], the inhibition at 0.1 µM is around 100%.
Take `CCCC[C@]12C3=CC[C@H]4C[C@@H](O)CC[C@]4(C)[C@H]3CC[C@]1(C)[C@@H]([C@H](C)CCCC(C)C)C[C@@H]2O` [14α-n-Butyl-5α-cholest-7-en-3β,15α-diol, 14α-n-butyl-5α-cholest-7-en-3β,15α-diol]: the IC50 in test [1] (setting [3]) stood at 5000 nM.
Turning to `CCCC[C@]12C3=CC[C@H]4C[C@@H](O)CC[C@]4(C)[C@H]3CC[C@]1(C)[C@@H]([C@H](C)CCCC(C)C)C[C@H]2O` [14α-n-Butyl-5α-cholest-7-en-3β,15β-diol, 14α-n-butyl-5α-cholest-7-en-3β,15β-diol], in test [1] (setting [3]), the IC50 amounted to 4400 nM.
Turning to `CCCC[C@@]12C(=O)C[C@H]([C@H](C)CCCC(C)C)[C@@]1(C)CC[C@H]1C2=CC[C@H]2C[C@@H](O)CC[C@@]21C` [14α-n-Butyl-5α-cholest-7-en-3β-ol-15-one, 14α-n-butyl-5α-cholest-7-en-3β-ol-15-one], the IC50 in test [1] (setting [3]) was 8300 nM.
Same read-out and setting: as for `CCC[C@]12C3=CC[C@H]4C[C@@H](O)CC[C@]4(C)[C@H]3CC[C@]1(C)[C@@H]([C@H](C)CCCC(C)C)C[C@@H]2O` [14α-n-Propyl-5α-cholest-7-en-3β,15α-diol, 14α-n-propyl-5α-cholest-7-en-3β,15α-diol], the figure is 1100 nM; as for `CCC[C@]12C3=CC[C@H]4C[C@@H](O)CC[C@]4(C)[C@H]3CC[C@]1(C)[C@@H]([C@H](C)CCCC(C)C)C[C@H]2O` [14α-n-Propyl-5α-cholest-7-en-3β,15β-diol, 14α-n-propyl-5α-cholest-7-en-3β,15β-diol], 4100 nM.
For `CCC[C@@]12C(=O)C[C@H]([C@H](C)CCCC(C)C)[C@@]1(C)CC[C@H]1C2=CC[C@H]2C[C@@H](O)CC[C@@]21C` [14α-n-propyl-5α-cholest-7-en-3β-ol-15-one], the IC50 in test [1] (setting [3]) was determined as 3400 nM.
